Results as given in ChEMBL document CHEMBL3352427, “Rational design of the first difluorostatone-based PfSUB1 inhibitors” (Bioorg Med Chem Lett, 2014).
Starred links: 1 amine or outer side, 2 acyl side, 3 side chain; linkers in the order of their positions; H or OH if unused. Non-standard residues stand in square brackets, D forms with d. Residues, ends and D or L forms follow the SMILES beside them. *: point of attachment. X1 = C[C@H](N[*:1])C(=O)C(F)(F)C(=O)[*:2]; X2 = C[C@H](N[*:1])C(O)C(F)(F)C(=O)[*:2]; Cbz = O=C(OCc1ccccc1)*; OBn = c1ccc(CO*)cc1; Bn = c1ccc(C*)cc1; βAla = NCCC(=O)O

Key:
[1] = target: T1, Subtilisin-like protease 1 (Plasmodium falciparum) (UniProt O61142); test: Inhibition of Plasmodium falciparum serine protease subtilisin-like protease 1 at 100 uM by fluorimetric assay
T1 sequence (whole entry): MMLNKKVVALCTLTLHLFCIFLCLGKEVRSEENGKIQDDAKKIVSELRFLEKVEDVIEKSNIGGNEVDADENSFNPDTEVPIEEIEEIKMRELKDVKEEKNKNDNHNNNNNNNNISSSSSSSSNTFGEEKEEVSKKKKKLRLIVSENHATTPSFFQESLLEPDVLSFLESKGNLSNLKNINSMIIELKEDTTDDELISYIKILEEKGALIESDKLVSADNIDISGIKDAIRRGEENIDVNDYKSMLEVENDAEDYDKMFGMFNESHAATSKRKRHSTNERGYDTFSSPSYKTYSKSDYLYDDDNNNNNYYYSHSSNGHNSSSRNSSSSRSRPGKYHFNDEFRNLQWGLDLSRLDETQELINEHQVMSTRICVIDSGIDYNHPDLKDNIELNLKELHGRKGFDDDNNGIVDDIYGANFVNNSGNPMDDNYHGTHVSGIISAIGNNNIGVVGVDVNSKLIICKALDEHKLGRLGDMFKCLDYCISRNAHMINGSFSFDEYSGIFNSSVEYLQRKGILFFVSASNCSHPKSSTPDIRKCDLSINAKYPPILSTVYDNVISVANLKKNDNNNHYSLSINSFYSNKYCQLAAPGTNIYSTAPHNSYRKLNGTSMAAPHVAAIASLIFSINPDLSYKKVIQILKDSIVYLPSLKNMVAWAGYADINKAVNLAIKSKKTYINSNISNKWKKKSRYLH

[2] = target: T2, Subtilisin-like protease 1 (Plasmodium falciparum, UniProt O61142); test: Inhibition of Plasmodium falciparum serine protease subtilisin-like protease 1by fluorimetric assay
T2 sequence (O61142 whole entry): T1 sequence (whole entry)

SMILES	inhibition [1]	IC50 [2]
CC(=O)N[C@H](C(=O)N[C@@H](C)C(=O)N[C@@H](C)C(=O)C(F)(F)C(=O)NCC(=O)O)[C@@H](C)O	6%	–
CC[C@H](C)[C@H](NC(=O)[C@H](CCCCNC(=O)OCc1ccccc1)NC(C)=O)C(=O)N[C@H](C(=O)N[C@@H](C)C(=O)N[C@@H](C)C(O)C(F)(F)C(=O)NCC(=O)OCc1ccccc1)[C@@H](C)OCc1ccccc1 (some centres undefined) (Ac-K(Cbz)IT(Bn)A[X2]G-OBn)	3%	–
CC[C@H](C)[C@H](NC(=O)[C@H](CCCCNC(=O)OCc1ccccc1)NC(C)=O)C(=O)N[C@H](C(=O)N[C@@H](C)C(=O)N[C@@H](C)C(=O)C(F)(F)C(=O)NCCC(=O)OCc1ccccc1)[C@@H](C)OCc1ccccc1 (Ac-K(Cbz)IT(Bn)A[X1][βAla]-OBn)	14%	–
CC[C@H](C)[C@H](NC(=O)[C@H](CCCCN)NC(C)=O)C(=O)N[C@H](C(=O)N[C@@H](C)C(=O)N[C@@H](C)C(=O)C(F)(F)C(=O)NCC(=O)O)[C@@H](C)O (HELM PEPTIDE1{[ac].K.I.T.A.[C[C@H](N[*:1])C(=O)C(F)(F)C(=O)[*:2]].G}$$$$V2.0)	100%	0.6 µM
CC[C@H](C)[C@H](NC(C)=O)C(=O)N[C@H](C(=O)N[C@@H](C)C(=O)N[C@@H](C)C(=O)C(F)(F)C(=O)NCC(=O)OCc1ccccc1)[C@@H](C)OCc1ccccc1 (Ac-IT(Bn)A[X1]G-OBn)	59%	33 µM
CC[C@H](C)[C@H](NC(=O)[C@H](CCCCNC(=O)OCc1ccccc1)NC(C)=O)C(=O)N[C@H](C(=O)N[C@@H](C)C(=O)N[C@@H](C)C(=O)C(F)(F)C(=O)NCC(=O)OCc1ccccc1)[C@@H](C)OCc1ccccc1 (Ac-K(Cbz)IT(Bn)A[X1]G-OBn)	71%	5 µM
CC[C@H](C)[C@H](NC(=O)[C@H](CCCCN)NC(C)=O)C(=O)N[C@H](C(=O)N[C@@H](C)C(=O)N[C@@H](C)C(=O)C(F)(F)C(=O)NCCC(=O)O)[C@@H](C)O (HELM PEPTIDE1{[ac].K.I.T.A.[C[C@H](N[*:1])C(=O)C(F)(F)C(=O)[*:2]].[bAla]}$$$$V2.0)	63%	60 µM
CC[C@H](C)[C@H](NC(C)=O)C(=O)N[C@H](C(=O)N[C@@H](C)C(=O)N[C@@H](C)C(=O)C(F)(F)C(=O)NCC(=O)O)[C@@H](C)O (HELM PEPTIDE1{[ac].I.T.A.[C[C@H](N[*:1])C(=O)C(F)(F)C(=O)[*:2]].G}$$$$V2.0)	99%	0.6 µM
CC[C@H](C)[C@H](NC(C)=O)C(=O)N[C@H](C(=O)N[C@@H](C)C(=O)N[C@@H](C)C(O)C(F)(F)C(=O)NCC(=O)OCc1ccccc1)[C@@H](C)OCc1ccccc1 (mixture of isomers)	0%	–
